Experimental data reported in patent publication US6960611B2, “Sulfonyl-containing 2,3-diarylindole compounds, methods for making same, and methods of use thereof” (Institute of Materia Medica, priority 2002, dated 2005).

How the values were obtained:
COX-2 = biological target: T1, COX-2 (Mus musculus, UniProt Q05769); test: COX-2 assay: PGE2 release (RIA) from LPS-stimulated mouse peritoneal macrophages; type: cell-based, mice; conditions: LPS 1 mg/L 9 h, PGE2 by RIA
T1 construct: endogenous in cells; host or cells: thioglycollate-elicited peritoneal macrophages of male C57BL-6J mice, stimulated with LPS
T1 sequence (Q05769 18-604): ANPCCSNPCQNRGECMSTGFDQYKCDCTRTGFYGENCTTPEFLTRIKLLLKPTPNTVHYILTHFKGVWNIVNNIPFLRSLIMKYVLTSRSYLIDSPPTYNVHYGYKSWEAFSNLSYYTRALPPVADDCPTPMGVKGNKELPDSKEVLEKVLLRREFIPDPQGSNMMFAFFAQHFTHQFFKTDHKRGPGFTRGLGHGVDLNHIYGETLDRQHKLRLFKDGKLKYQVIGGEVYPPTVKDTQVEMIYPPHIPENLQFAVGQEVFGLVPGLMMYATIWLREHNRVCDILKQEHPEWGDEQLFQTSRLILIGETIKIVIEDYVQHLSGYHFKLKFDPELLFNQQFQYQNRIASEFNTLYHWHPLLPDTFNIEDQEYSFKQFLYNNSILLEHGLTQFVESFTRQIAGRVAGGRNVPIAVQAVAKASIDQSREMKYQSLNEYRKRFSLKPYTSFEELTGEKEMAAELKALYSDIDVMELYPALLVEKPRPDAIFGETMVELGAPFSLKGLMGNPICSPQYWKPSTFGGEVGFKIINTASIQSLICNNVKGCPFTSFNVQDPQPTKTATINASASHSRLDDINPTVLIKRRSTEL
Procedure: Cell culture: Adherent macrophages were harvested from the peritoneal cells of male mice (C57BL-6J, Level 2, from Experiment Animal Center, Academy of Military Medical Science) 3 d after the injection (ip) of brewer thioglycollate medium (5 mL/100 g body weight). […] Cell viability was examined by trypan blue dye exclusion. All incubation procedures were performed with 5% CO2 in humidified air at 37° C.
COX-2 assay: Macrophages were incubated with test compound at different concentrations or solvent (Me2SO) for 1 h and were stimulated with LPS 1 mg/L for 9 h. The amount of PGE2 in supernatants was measured by RIA. The inhibitory ratio was calculated using the same Formula as in COX-1 assay section. Cs, Ct, Cc refer to PGE2 concentration in supernatants of LPS, test compound, and control groups, respectively.
Statistical analysis: Data were expressed as the mean±SD of more than three independent experiments. Dose-inhibitory effect curves were fit through “uphill dose response curves, variable slope” using Prism, GraphPad (version 3.00): [formula]

[1] = tested on: carrageenan-induced foot pad edema; test: Rat carrageenan-induced foot pad edema assay; type: in vivo; conditions: 10 mg/kg oral
Procedure: Male Sprgue-Dawley rats (190-220 g ) were fasted with free access to water at least 16 h prior experiments. The rats were dosed orally with a 1 ml suspension of test compound in vehicle (0.5% methyl cellulose and 0.025% Tween-20) or with vehicle alone. One hour later a subplantar injection of 0.1 ml of 1% solution of carageenan in 0.9% strile saline was administered to the right hind foot pad. Paw volume was measured with a displacement plethysmometer 2, 3, and 4 h after carrageenan injection.

Row | Structure (SMILES) | melting point [°C] | IC50 (COX-2) [nM] | edema (paw volume increase) ([1]; 2 h after carrageenan) [%] | inhibitory percentage of edema ([1]; 2 h after carrageenan) [%] | edema (paw volume increase) ([1]; 3 h after carrageenan) [%] | inhibitory percentage of edema ([1]; 3 h after carrageenan) [%] | edema (paw volume increase) ([1]; 4 h after carrageenan) [%] | inhibitory percentage of edema ([1]; 4 h after carrageenan) [%]
1 | COc1ccc(-c2[nH]c3ccc(Cl)cc3c2-c2ccc(S(C)(=O)=O)cc2)cc1 [Example 90, 2-(4-methoxyphenyl)-3-(4-methylsulfonylphenyl)-5-chloroindole] | 246 to 248 | 2.81 | 44.2 ± 11.9 | 38.1 | 46.5 ± 5.7 | 52.4 | 40.8 ± 5.3 | 49.6
2 | CS(=O)(=O)c1ccc(-c2[nH]c3ccc(F)cc3c2-c2ccccc2)cc1 [Example 79, 2-(4-methylsulfonylphenyl)-3-phenyl-5-fluoroindole] | 243 to 245 | 5 | 41.8 ± 7.2 | 41.4 | 47.7 ± 15.8 | 51.5 | 31.6 ± 13.3 | 60.8
3 | Cc1ccc(-c2c(-c3ccc(S(C)(=O)=O)cc3)[nH]c3ccccc23)cc1C [Example 67, 2-(4-methylsulfonylphenyl)-3-(3,4-dimethylphenyl)indole] | 206 to 207 | 0.166 | 25.6 ± 13.4 |  | 43.9 ± 11 | 29.8 | 29.5 ± 12 | 43.1
4 | COc1ccc(-c2c(-c3ccc(S(C)(=O)=O)cc3)[nH]c3ccccc23)cc1 [Example 69, 2-(4-methylsulfonylphenyl)-3-(4-methoxyphenyl)indole] | 218.5 to 220.5 | 0.022 | 21.6 ± 12.4 |  | 43.4 ± 12.1 | 30.6 | 37.8 ± 10.7 | 27.1
5 | NS(=O)(=O)c1ccc(-c2[nH]c3ccc(F)cc3c2-c2ccccc2)cc1 [Example 80, 2-(4-aminosulfonylphenyl)-3-phenyl-5-fluoroindole] | 302 to 304 | 2 | 36.7 ± 7.4 | 48.6 | 46.6 ± 14 | 52.2 | 40.8 ± 17.6 | 49.4
6 | CS(=O)(=O)c1ccc(-c2c(-c3ccc(Cl)cc3)[nH]c3ccc(Cl)cc23)cc1 [Example 89, 2-(4-chlorophenyl)-3-(4-methylsulfonylphenyl)-5-chloroindole] | 269 to 271 | 354 | 58.6 ± 15.8 |  | 66.5 ± 13.4 | 46.1 | 58.4 ± 13.8 | 29.9
7 | Cc1ccc2[nH]c(-c3ccc(S(N)(=O)=O)cc3)c(-c3ccccc3)c2c1 [Example 84, 2-(4-aminosulfonylphenyl)-3-phenyl-5-methylindole] | 242 to 244 | 0.0171 | 63.1 ± 18.1 | 40.5 | 65.6 ± 15.4 | 32.8 | 62.4 ± 15.7 | 22.6
8 | NS(=O)(=O)c1ccc(-c2[nH]c3ccccc3c2-c2ccc(F)cc2)cc1 [Example 72, 2-(4-aminosulfonylphenyl)-3-(4-Fluorophenyl)indole] | 228 to 230 | 5.15 | 32.8 ± 13.2 |  | 36.4 ± 16.9 | 40.5 | 35.4 ± 11.3 | 41.2
9 | NS(=O)(=O)c1ccc(-c2[nH]c3ccc(Cl)cc3c2-c2ccccc2)cc1 [Example 75, 2-(4-aminosulfonylphenyl)-3-phenyl-5-chloroindole] | 297 to 299 | 0.143 | 35.6 ± 25.5 | 50.1 | 44.1 ± 31.4 | 54.8 | 34 ± 13.6 | 57.8
10 | NS(=O)(=O)c1ccc(-c2c(-c3ccccc3)[nH]c3ccccc23)cc1 [Example 101, 2-phenyl-3-(4-aminosulfonylphenyl)indole] | 223 to 225 | 2.55 | 36.6 ± 8.9 |  | 39.1 ± 15.4 | 36.1 | 33.6 ± 16.5 | 44.2
11 | CS(=O)(=O)c1ccc(-c2[nH]c3ccccc3c2-c2ccc(Br)cc2)cc1 [Example 63, 2-(4-methylsulfonylphenyl)-3-(4-bromophenyl)indole] | 225 to 226 | 0.369 | 27.1 ± 10.1 |  | 55.3 ± 17 | 11.6 | 43.6 ± 9.5 | 16.1
12 | CS(=O)(=O)c1ccc(-c2c(-c3ccccc3)[nH]c3ccccc23)cc1 [Example 100, 2-phenyl-3-(4-methylsulfonylphenyl)indole] | 239 to 241 | 0.216 | 42.8 ± 15.1 | 40.1 | 54.4 ± 7.9 | 44.3 | 43.5 ± 8.9 | 46.1
13 | CS(=O)(=O)c1ccc(-c2[nH]c3ccccc3c2-c2ccccc2)cc1 [Example 59, 2-(4-methylsulfonylphenyl)-3-phenylindole] | 221 to 222 | 3.86 | 40.8 ± 15.8 |  | 48.6 ± 14 | 55.8 | 41.2 ± 17.4 | 56.1
14 | NS(=O)(=O)c1ccc(-c2[nH]c3ccccc3c2-c2ccc(Cl)cc2)cc1 [Example 62, 2-(4-aminosulfonylphenyl)-3-(4-chlorophenyl)indole] | 298 to 300 | 33.5 | 16.6 ± 6.5 |  | 41.3 ± 13.7 | 24.2 | 38.6 ± 14.9 | 25.6
15 | CS(=O)(=O)c1ccc(-c2c(-c3ccccc3F)[nH]c3ccc(Cl)cc23)cc1 [Example 92, 2-(2-fluorophenyl)-3-(4-methylsulfonylphenyl)-5-chloroindole] | 246 to 248 | 1.76 | 31.3 ± 17 | 56.2 | 44.6 ± 13.7 | 54.3 | 35.4 ± 18.8 | 56.1
16 | NS(=O)(=O)c1ccc(-c2[nH]c3ccccc3c2-c2ccccc2)cc1 [Example 60, 2-(4-aminosulfonylphenyl)-3-phenylindole] | 231 to 232 | 0.161 | 32.5 ± 9.45 |  | 56.9 ± 16.4 | 48.3 | 43.2 ± 13.9 | 53.9
17 | CC(=O)Oc1ccc(-c2[nH]c3ccc(Cl)cc3c2-c2ccc(S(C)(=O)=O)cc2)cc1 [Example 94, 2-(4-acetyloxyphenyl)-3-(4-methylsulfonylphenyl)-5-chloroindole] | 248 to 250 | 7.16 | 58.8 ± 11.4 | 17.6 | 62.1 ± 7.1 | 36.3 | 56.4 ± 11.7 | 30.0
